Measured values reported in US12285475B2, “Bacterium capable of inducing TH1 cells” (priority 2016, dated 2025).
Like-named read-outs stand apart in the source and are kept apart here.

What was measured:
Ka-11E12 = Ka-11E12 antibiotic susceptibility (MIC / growth in presence of antibiotics); format: cell-based, Klebsiella aeromobilis; settings: against Ka-11E12, Table 14
Procedure: FIG. 36 is a graph for analyzing the Ka-11E12 growths in the presence of antibiotics. Ka-11E12 was cultured in a 96-well plate in the presence of different concentrations of the antibiotics at 37° C. for 24 hours. The bacterium growths were determined based on the absorbance measurement at a wavelength of 630 nm. Each data represents the mean±standard deviation based on the results of at least three independent experiments.

Kp-2H7 = Kp-2H7 antibiotic susceptibility (MIC / growth in presence of antibiotics); format: cell-based, Klebsiella pneumoniae; settings: for resistance of Kp-2H7 to antibiotic: FIG. 11 and Table 12, culture 37° C. 24 hours, absorbance 630 nm
Procedure: The bacterium growths were determined based on the absorbance measurement at a wavelength of 630 nm.

[1] = Klebsiella, 24 h, read-out: MIC
[2] = Klebsiella pneumoniae, 24 h, read-out: MIC

## NCC[C@H](O)C(=O)N[C@@H]1C[C@H](N)[C@@H](O[C@H]2O[C@H](CN)[C@@H](O)[C@H](O)[C@H]2O)[C@H](O)[C@H]1O[C@H]1O[C@H](CO)[C@@H](O)[C@H](N)[C@H]1O [Amikacin]
Ka-11E12; [1]
  MIC: ≤ 8 µg/mL
Kp-2H7; [2]
  MIC: ≤ 8 µg/mL

## CC1(C)S[C@@H]2[C@H](NC(=O)[C@H](N)c3ccccc3)C(=O)N2[C@H]1C(=O)O [Ampicillin]
Ka-11E12; [1]
  MIC: > 16 µg/mL
Kp-2H7; [2]
  MIC: > 16 µg/mL

## C[C@H]1[C@H](NC(=O)/C(=N\OC(C)(C)C(=O)O)c2csc(N)n2)C(=O)N1S(=O)(=O)O [Aztreonam]
Ka-11E12; [1]
  MIC: ≤ 1 µg/mL
Kp-2H7; [2]
  MIC: ≤ 1 µg/mL

## N[C@@H](C(=O)N[C@@H]1C(=O)N2C(C(=O)O)=C(Cl)CS[C@H]12)c1ccccc1 [Cefaclor]
Ka-11E12; [1]
  MIC: 8 µg/mL
Kp-2H7; [2]
  MIC: ≤ 4 µg/mL

## Cc1nnc(SCC2=C(C(=O)O)N3C(=O)[C@@H](NC(=O)Cn4cnnn4)[C@H]3SC2)s1 [Cefazolin]
Ka-11E12; [1]
  MIC: > 4 µg/mL
Kp-2H7; [2]
  MIC: 1 µg/mL

## CO[C@@]1(NC(=O)CSCC#N)C(=O)N2C(C(=O)O)=C(CSc3nnnn3C)CS[C@@H]21 [Cefmetazole]
Ka-11E12; [1]
  MIC: 16 µg/mL
Kp-2H7; [2]
  MIC: ≤ 8 µg/mL

## CO/N=C(\C(=O)N[C@@H]1C(=O)N2C(C(=O)O)=C(COC(C)=O)CS[C@H]12)c1csc(N)n1 [Cefotaxime]
Ka-11E12; [1]
  MIC: ≤ 0.5 µg/mL
Kp-2H7; [2]
  MIC: ≤ 0.5 µg/mL

## CN(C)CCn1nnnc1SCC1=C(C(=O)O)N2C(=O)[C@@H](NC(=O)Cc3csc(N)n3)[C@H]2SC1 [Cefotiam]
Ka-11E12; [1]
  MIC: ≤ 0.5 µg/mL
Kp-2H7; [2]
  MIC: ≤ 0.5 µg/mL

## CO/N=C(\C(=O)N[C@@H]1C(=O)N2C(C(=O)[O-])=C(C[n+]3cccc4c3CCC4)CS[C@H]12)c1csc(N)n1 [Cefpirome]
Ka-11E12; [1]
  MIC: ≤ 4 µg/mL
Kp-2H7; [2]
  MIC: ≤ 4 µg/mL

## COCC1=C(C(=O)OC(C)OC(=O)OC(C)C)N2C(=O)[C@@H](NC(=O)/C(=N\OC)c3csc(N)n3)[C@H]2SC1 (some centres unmarked) [Cefpodoxime-Proxetil]
Ka-11E12; [1]
  MIC: ≤ 1 µg/mL
Kp-2H7; [2]
  MIC: ≤ 1 µg/mL

## CC(C)(O/N=C(\C(=O)N[C@@H]1C(=O)N2C(C(=O)[O-])=C(C[n+]3ccccc3)CS[C@H]12)c1csc(N)n1)C(=O)O [Ceftazidime]
Ka-11E12; [1]
  MIC: ≤ 1 µg/mL
Kp-2H7; [2]
  MIC: ≤ 1 µg/mL

## CO[C@@]1(NC(=O)CSC(F)F)C(=O)N2C(C(=O)O)=C(CSc3nnnn3CCO)CO[C@@H]21 [Flomoxef]
Ka-11E12; [1]
  MIC: ≤ 8 µg/mL
Kp-2H7; [2]
  MIC: ≤ 8 µg/mL

## C[C@@H]1O[C@@H]1P(=O)(O)O [Fosfomycin]
Ka-11E12; [1]
  MIC: 16 µg/mL
Kp-2H7; [2]
  MIC: 16 µg/mL

## C[C@H]1COc2c(N3CCN(C)CC3)c(F)cc3c(=O)c(C(=O)O)cn1c23 [Levofloxacin]
Ka-11E12; [1]
  MIC: ≤ 1 µg/mL
Kp-2H7; [2]
  MIC: ≤ 1 µg/mL

## C[C@@H](O)[C@H]1C(=O)N2C(C(=O)O)=C(S[C@@H]3CN[C@H](C(=O)N(C)C)C3)[C@H](C)[C@H]12 [Meropenem]
Ka-11E12; [1]
  MIC: ≤ 0.25 µg/mL
Kp-2H7; [2]
  MIC: ≤ 0.25 µg/mL

## CN(C)c1ccc(O)c2c1C[C@H]1C[C@H]3[C@H](N(C)C)C(O)=C(C(N)=O)C(=O)[C@@]3(O)C(O)=C1C2=O [Minocycline]
Ka-11E12; [1]
  MIC: ≤ 2 µg/mL
Kp-2H7; [2]
  MIC: ≤ 2 µg/mL

## CCN1CCN(C(=O)N[C@@H](C(=O)N[C@@H]2C(=O)N3[C@@H]2SC(C)(C)[C@@H]3C(=O)O)c2ccccc2)C(=O)C1=O [Piperacillin]
Ka-11E12; [1]
  MIC: ≤ 8 µg/mL
Kp-2H7; [2]
  MIC: ≤ 8 µg/mL

## Cc1ncc([N+](=O)[O-])n1CCO [metronidazole]
Kp-2H7
  resistance of Kp-2H7 to antibiotic: resistances

## CN[C@@H]1[C@H](O)[C@H](NC)[C@H]2O[C@@]3(O)C(=O)C[C@@H](C)O[C@H]3O[C@@H]2[C@H]1O [spectinomycin]
Kp-2H7
  resistance of Kp-2H7 to antibiotic: resistances

## CC[C@H]1OC(=O)C[C@@H](O)[C@H](C)[C@@H](O[C@@H]2O[C@H](C)[C@@H](O[C@H]3C[C@@](C)(O)[C@@H](O)[C@H](C)O3)[C@H](N(C)C)[C@H]2O)[C@@H](CC=O)C[C@@H](C)C(=O)/C=C/C(C)=C/[C@@H]1CO[C@@H]1O[C@H](C)[C@@H](O)[C@@H](OC)[C@H]1OC [tylosin]
Kp-2H7
  resistance of Kp-2H7 to antibiotic: resistances

## Amoxicillin/Clavulanate
Ka-11E12
  MIC: >16 µg/mL
Kp-2H7; against Kp-2H7, Table 12
  MIC: ≤4 µg/mL

## Gentamicin
Ka-11E12
  MIC: ≤2 µg/mL
Kp-2H7; against Kp-2H7, Table 12
  MIC: ≤2 µg/mL

## Imipenem/Cilastatin
Ka-11E12
  MIC: ≤0.25 µg/mL
Kp-2H7
  MIC: ≤0.25 µg/mL

## Sulbactam/Cefoperazone
Ka-11E12
  MIC: ≤4 µg/mL
Kp-2H7; against Kp-2H7, Table 12
  MIC: ≤4 µg/mL

## Sulfamethoxazole-Trimethoprim
Ka-11E12
  MIC: ≤ 20 µg/mL
Kp-2H7; against Kp-2H7, Table 12
  MIC: ≤20 µg/mL
